The values that follow come from patent US20170334899A1, “AMINO-SUBSTITUTED ISOTHIAZOLES” (Bayer Pharma Aktiengesellschaft, priority 2014, published 2017).

Experiment [1] concerns human cervical tumor cell line HeLa (ATCC CCL-2). The experiment can be described thus: SAC-Formation - Nocodazole-Induced Assay. It is filed as cell-based. Particulars: Homo sapiens, HeLa, 24 h, HeLa cells, nocodazole 0.1 μg/ml together with test compound, decrease of mitotic cells (phospho-histone H3 Ser10). The gist of the method:
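HeLa cells, plated overnight, were treated 24 h at 37 °C with nocodazole (0.1 μg/ml final) plus test compound (0.005–20 μM, 0.5% DMSO) added at the same time. After fixation, anti-phospho-histone H3 Ser10 and Hoechst staining gave the mitotic cell fraction by imaging. Values came from four-parameter Hill fits.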

Experiment [2] has the same test system. Put plainly: SAC-Formation - Paclitaxel-Induced Assay. Type of experiment: cell-based. Particulars: Homo sapiens, HeLa, 24 h, HeLa cells, paclitaxel 0.05 μM, test range 0.005 μM-20 μM, read-out: IC50 [mol/l] SAC-Formation - Paclitaxel-Induced Assay. In outline: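 HeLa cells incubated overnight at 37° C, then given paclitaxel (0.05 μM final) plus test compound (0.005–20 μM, 0.5% DMSO) together for 24 h at 37° C. Fixed cells stained for phospho-histone H3 Ser10 (mitotic cells) and Hoechst 33342 (cell count); imaging-derived mitotic index fitted by four-parameter Hill equation.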

Take `Cc1nsc(Nc2cnc(C(F)(F)F)cn2)c1C(=O)Nc1ccc(OCC2CCN(CCC(F)(F)F)CC2(F)F)nc1` (centres unmarked) [Example 402, N-(6-{[3,3-difluoro-1-(3,3,3-trifluoropropyl)piperidin-4-yl]methoxy}pyridin-3-yl)-3-methyl-5-{[5-(trifluoromethyl)pyrazin-2-yl]amino}-1,2-thiazole-4-carboxamide]: the IC50 was found to be 1200 nM in experiment [1] and 3400 nM in experiment [2].
Turning to `CCN1CC[C@H](Oc2ccc(NC(=O)c3c(C)nsc3Nc3cnc(C(F)(F)F)cn3)cn2)[C@H](F)C1` [Example 424, N-(6-{[(3R,4S)-1-Ethyl-3-fluoropiperidin-4-yl]oxy}pyridin-3-yl)-3-methyl-5-{[5-(trifluoromethyl)pyrazin-2-yl]amino}-1,2-thiazole-4-carboxamide], the results for the IC50 in experiment [1] and in experiment [2] were 74 nM and 320 nM, respectively.
Turning to `Cc1nsc(Nc2cnc(C(F)(F)F)cn2)c1C(=O)Nc1ccc(OCCN2CCC(F)(F)CC2)nc1` [Example 407, N-{6-[2-(4,4-Difluoropiperidin-1-yl)ethoxy]pyridin-3-yl}-3-methyl-5-{[5-(trifluoromethyl)pyrazin-2-yl]amino}-1,2-thiazole-4-carboxamide], the IC50 came out at 39 nM in experiment [1] and 79 nM in experiment [2].
As to `Cc1nsc(Nc2cnc(C(F)(F)F)cn2)c1C(=O)Nc1ccc(F)c(O[C@H]2CCN(CCC(F)(F)F)C2)c1` [Example 415, N-(4-Fluoro-3-{[(3S)-1-(3,3,3-trifluoropropyl)pyrrolidin-3-yl]oxy}phenyl)-3-methyl-5-{[5-(trifluoromethyl)pyrazin-2-yl]amino}-1,2-thiazole-4-carboxamide], the IC50 in experiment [1] amounted to 18 nM; in experiment [2], 53 nM.
In the case of `Cc1nsc(Nc2cc(C#N)ccn2)c1C(=O)Nc1ccc(OCCCNCC(F)F)nc1` [Example 45, 5-[(4-Cyanopyridin-2-yl)amino]-N-(6-{3-[(2,2-difluoroethyl)amino]propoxy}pyridin-3-yl)-3-methyl-1,2-thiazole-4-carboxamide], the IC50 in experiment [1] stood at 3500 nM; in experiment [2], 20000 nM.
Taken in the same sequence, the figures for `COCCOc1ccc(NC(=O)c2c(C)nsc2Nc2nc3c(C(F)(F)F)cccc3s2)cc1F` [Example 1, N-[3-Fluoro-4-(2-methoxyethoxy)phenyl]-3-methyl-5-{[4-(trifluoromethyl)-1,3-benzothiazol-2-yl]amino}-1,2-thiazole-4-carboxamide] were 72 nM and 94 nM.
For the molecule `Cc1nsc(Nc2cnc(C(F)(F)F)cn2)c1C(=O)Nc1ccc(OCCN(C)C(=O)OC(C)(C)C)nc1` [Example 429, tert-Butyl methyl{2-[(5-{[(3-methyl-5-{[5-(trifluoromethyl)pyrazin-2-yl]amino}-1,2-thiazol-4-yl)carbonyl]amino}pyridin-2-yl)oxy]ethyl}carbannate], the IC50 amounted to 16 nM in experiment [1] and 260 nM in experiment [2].
Turning to `Cc1nsc(Nc2cnc(C(F)(F)F)cn2)c1C(=O)Nc1ccc(OC[C@H]2CCN(CC(F)(F)F)C2)nc1` [Example 404, 3-Methyl-N-(6-{[(3S)-1-(2,2,2-trifluoroethyl)pyrrolidin-3-yl]methoxy}pyridin-3-yl)-5-{[5-(trifluoromethyl)pyrazin-2-yl]amino}-1,2-thiazole-4-carboxamide], the IC50 in experiment [1] is 63 nM; in experiment [2], 20 nM.
Taken in the same sequence, the figures for `Cc1nsc(Nc2cnc(C(F)(F)F)cn2)c1C(=O)Nc1ccc(F)c(O[C@@H]2CCN(CC(F)(F)F)C2)c1` [Example 413, N-(4-Fluoro-3-{[(3R)-1-(2,2,2-trifluoroethyl)pyrrolidin-3-yl]oxy}phenyl)-3-methyl-5-{[5-(trifluoromethyl)pyrazin-2-yl]amino}-1,2-thiazole-4-carboxamide] were 17 nM and 42 nM.
As for `Cc1nsc(Nc2cc(C#N)ccn2)c1C(=O)Nc1ccc(OCCCN)nc1` [Example 44, N-[6-(3-Aminopropoxy)pyridin-3-yl]-5-[(4-cyanopyridin-2-yl)amino]-3-methyl-1,2-thiazole-4-carboxamide], the IC50 in experiment [1] and in experiment [2] was 20000 nM throughout.
As for `Cc1nsc(Nc2cnccn2)c1C(=O)Nc1ccc(OC2CCCN(C(=O)OC(C)(C)C)C2)nc1` (centres unmarked) [Example 41, tert-Butyl 3-{[5-({[3-methyl-5-(pyrazin-2-ylamino)-1,2-thiazol-4-yl]carbonyl}amino)-pyridin-2-yl]oxy}piperidine-1-carboxylate], the IC50 in experiment [1] came to 240 nM; in experiment [2] it was 1800 nM.
On to `Cc1nsc(Nc2ccc(C#N)cn2)c1C(=O)Nc1ccc(OC2CCCN(CCF)C2)nc1` (centres unmarked) [Example 38, 5-[(5-Cyanopyridin-2-yl)amino]-N-(6-{[1-(2-fluoroethyl)piperidin-3-yl]oxy}pyridin-3-yl)-3-methyl-1,2-thiazole-4-carboxamide], for which the IC50 in experiment [1] was found to be 1800 nM; in experiment [2], 13000 nM.
Take `Cc1nsc(Nc2ccc(C#N)cn2)c1C(=O)Nc1ccc(OCCCNC(=O)OC(C)(C)C)nc1` [Example 46, tert-Butyl [3-({5-[({5-[(5-cyanopyridin-2-yl)amino]-3-methyl-1,2-thiazol-4-yl}-carbonyl)amino]pyridin-2-yl}oxy)propyl]carbamate]: the figures for the IC50 in experiment [1] and in experiment [2] were 41 nM and 250 nM, respectively.
Taken in the same sequence, the figures for `Cc1nsc(Nc2cnccn2)c1C(=O)Nc1ccc(OCCCN)nc1` [Example 48, N-[6-(3-Aminopropoxy)pyridin-3-yl]-3-methyl-5-(pyrazin-2-ylamino)-1,2-thiazole-4-carboxamide] were 5800 nM and 6600 nM.
As to `Cc1nsc(Nc2ccc(C#N)cn2)c1C(=O)Nc1ccc(OC2CCCNC2)nc1` (centres unmarked) [Example 37, 5-[(5-Cyanopyridin-2-yl)amino]-3-methyl-N-[6-(piperidin-3-yloxy)pyridin-3-yl]-1,2-thiazole-4-carboxamide], the IC50 in experiment [1] was 4200 nM; in experiment [2], 5200 nM.
For the molecule `Cc1nsc(Nc2ccc(C#N)cn2)c1C(=O)Nc1ccc(Nc2ccc(F)c(F)c2)nc1` [Example 433, 5-[(5-Cyanopyridin-2-yl)amino]-N-{6-[(3,4-difluorophenyl)amino]pyridin-3-yl}-3-methyl-1,2-thiazole-4-carboxamide], the IC50 came to 210 nM in experiment [1] and 1300 nM in experiment [2].
For `Cc1nsc(Nc2cnc3ccccc3n2)c1C(=O)Nc1ccc(NCCN(C)C(=O)OC(C)(C)C)nc1` [Example 434, tert-Butyl methyl(2-{[5-({[3-methyl-5-(quinoxalin-2-ylamino)-1,2-thiazol-4-yl]carbonyl}amino)pyridin-2-yl]amino}ethyl)carbamate] the same measures were 970 nM and 3500 nM.
On to `CCN1CCC(Oc2ccc(NC(=O)c3c(C)nsc3Nc3cnc(C(F)(F)F)cn3)cn2)C(F)(F)C1` (centres unmarked) [Example 406, N-{6-[(1-Ethyl-3,3-difluoropiperidin-4-yl)oxy]pyridin-3-yl}-3-methyl-5-{[5-(trifluoromethyl)pyrazin-2-yl]amino}-1,2-thiazole-4-carboxamide], for which the IC50 in experiment [1] came out at 33 nM; in experiment [2], 49 nM.
Regarding `COC(=O)c1cccc(NC(=O)c2c(C)nsc2Nc2cnc3ccccc3n2)c1` [Example 50, Methyl 3-({[3-methyl-5-(quinoxalin-2-ylamino)-1,2-thiazol-4-yl]carbonyl}amino)-benzoate], the results for the IC50 in experiment [1] and in experiment [2] were 4500 nM and 620 nM, respectively.
